According to the CheMixHub viscosity set:
Where “and” joins values, the source holds several entries; their conditions need not be identical. Equal values may be shown once.

Assays:
[1] = xn = mol fraction of the nth substance listed

C#Cc1ccccc1
Conditions | viscosity [mPa·s]
298.15 K, 101 kPa | 0.8829

COC(=O)CC(=O)OC
Conditions | viscosity [mPa·s]
303.15 K, 101 kPa | 1.804

O=C1CCCO1
viscosity
Conditions | 293.15 K | 298.15 K | 303.15 K | 308.15 K | 313.15 K | 318.15 K | 323.15 K
100 kPa | 1.92 mPa·s | 1.73 mPa·s and 1.73 mPa·s (3×) | 1.63 mPa·s and 1.63 mPa·s (3×) and 1.59 mPa·s | 1.52 mPa·s and 1.52 mPa·s (3×) | 1.42 mPa·s and 1.42 mPa·s (3×) | 1.35 mPa·s and 1.35 mPa·s (3×) | 1.3 mPa·s and 1.3 mPa·s (3×)
101 kPa | – | 1.74 mPa·s and 1.764 mPa·s | – | 1.477 mPa·s and 1.522 mPa·s and 1.429 mPa·s | – | 1.286 mPa·s and 1.33 mPa·s and 1.234 mPa·s | 1.206 mPa·s and 1.22 mPa·s
101.3 kPa | – | 1.75 mPa·s | – | – | – | – | –
101.33 kPa | 1.883 mPa·s | 1.738 mPa·s and 1.745 mPa·s | 1.765 mPa·s and 1.61 mPa·s and 1.612 mPa·s | 1.498 mPa·s | 1.39 mPa·s | – | 1.213 mPa·s

O
Conditions | viscosity
293.15 K, 100 kPa | 0.994 mPa·s and 0.991 mPa·s
295 K, 101.3 kPa | 0.975 mPa·s
295.15 K, 101 kPa | 0.955 mPa·s and 0.9548 mPa·s
295.65 K, 100.9 kPa | 0.9432 mPa·s
297.15 K, 101 kPa | 0.9111 mPa·s
298.15 K, 100 kPa | 0.884 mPa·s and 0.901 mPa·s
298.15 K, 101.3 kPa | 0.876 mPa·s
298.15 K, 101.33 kPa | 0.918 mPa·s
299.15 K, 101 kPa | 0.8705 mPa·s
300.15 K, 101 kPa | 0.797 mPa·s
300.65 K, 100.9 kPa | 0.8417 mPa·s
301.15 K, 101 kPa | 0.8327 mPa·s
302.15 K, 101 kPa | 0.917 mPa·s
303.15 K, 100 kPa | 0.796 mPa·s and 0.81 mPa·s
305.15 K, 101 kPa | 0.816 mPa·s and 0.717 mPa·s
305.65 K, 100.9 kPa | 0.7567 mPa·s
307.15 K, 101 kPa | 0.734 mPa·s
308.15 K, 101.3 kPa | 0.716 mPa·s and 0.708 mPa·s and 0.717 mPa·s
309.15 K, 101 kPa | 0.7052 mPa·s
310.65 K, 100.9 kPa | 0.6848 mPa·s
311.15 K, 101 kPa | 0.6833 mPa·s and 0.6783 mPa·s
313.15 K, 100 kPa | 0.662 mPa·s and 0.6579 mPa·s and 0.66 mPa·s
313.15 K, 101.33 kPa | 0.5631 mPa·s and 0.658 mPa·s
315.15 K, 101 kPa | 0.6291 mPa·s
316.15 K, 101 kPa | 0.6189 mPa·s
317.15 K, 101 kPa | 0.6067 mPa·s
318.15 K, 101.3 kPa | 0.594 mPa·s and 0.589 mPa·s and 0.592 mPa·s
318.15 K, 101.33 kPa | 0.6 mPa·s and 0.6 mPa·s
319.15 K, 101 kPa | 0.5856 mPa·s
320.15 K, 101 kPa | 0.5748 mPa·s
320.65 K, 100.9 kPa | 0.5706 mPa·s
321.15 K, 101 kPa | 0.5656 mPa·s
322.9 K, 101 kPa | 0.5516 mPa·s
323.15 K, 100 kPa | 0.567 mPa·s and 0.566 mPa·s
323.15 K, 101 kPa | 0.56 mPa·s and 0.5829 mPa·s and 0.5538 mPa·s

CCCC#N
Conditions | viscosity [mPa·s]
298.15 K, 101 kPa | 0.502

Nc1cccc(Cl)c1Cl
Conditions | viscosity [mPa·s]
313.15 K, 101 kPa | 3.74

CC(C)N
Conditions | viscosity [mPa·s]
298.15 K, 101 kPa | 0.278

COc1ccccc1O
101 kPa
Conditions | viscosity [mPa·s]
303.15 K | 4.45
308.15 K | 4.138

CC(=O)[O-].CCCC[n+]1ccn(C)c1
viscosity
Conditions | 298.15 K | 303.15 K | 313.15 K | 314.3 K | 323.15 K
100 kPa | 594.8 mPa·s | 399.6 mPa·s | 200.1 mPa·s | – | 111.7 mPa·s
101 kPa | 441 mPa·s | – | 154.5 mPa·s | 125.7 mPa·s and 138.3 mPa·s | –

BrCCBr
viscosity
Conditions | 298.15 K | 308.15 K | 323.15 K
101 kPa | 1.613 mPa·s | – | –
101.33 kPa | 1.616 mPa·s and 1.564 mPa·s | 1.384 mPa·s | 1.107 mPa·s

CC(F)(F)Cl
101 kPa
Conditions | viscosity [mPa·s]
293.15 K | 0.2489
293.35 K | 0.2432
293.45 K | 0.2381
313.15 K | 0.2004
313.25 K | 0.2015
313.35 K | 0.2002

Brc1ccccc1 + Cc1ccccc1
[1], 101 kPa
Conditions | viscosity [mPa·s]
293.15 K, x2 = 0.2 | 1.001
293.15 K, x2 = 0.4 | 0.885
293.15 K, x2 = 0.6 | 0.778
293.15 K, x2 = 0.8 | 0.677
298.15 K, x1 = 0.129 | 0.613
298.15 K, x1 = 0.267 | 0.672
298.15 K, x1 = 0.379 | 0.72
298.15 K, x1 = 0.505 | 0.786
298.15 K, x1 = 0.629 | 0.851
298.15 K, x1 = 0.736 | 0.91
298.15 K, x1 = 0.853 | 0.981
298.15 K, x1 = 0.882 | 0.996
298.15 K, x2 = 0.53 | 0.75
298.15 K, x2 = 0.623 | 0.7
298.15 K, x2 = 0.72 | 0.658
298.15 K, x2 = 0.869 | 0.603
303.15 K, x1 = 0.101 | 0.581
303.15 K, x1 = 0.129 | 0.574
303.15 K, x1 = 0.202 | 0.635
303.15 K, x1 = 0.267 | 0.626
303.15 K, x1 = 0.303 | 0.689
303.15 K, x1 = 0.379 | 0.674
303.15 K, x1 = 0.403 | 0.74
303.15 K, x1 = 0.503 | 0.788
303.15 K, x1 = 0.505 | 0.729
303.15 K, x1 = 0.603 | 0.831
303.15 K, x1 = 0.629 | 0.792
303.15 K, x1 = 0.703 | 0.877
303.15 K, x1 = 0.736 | 0.857
303.15 K, x1 = 0.802 | 0.918
303.15 K, x1 = 0.853 | 0.92
303.15 K, x1 = 0.882 | 0.938
303.15 K, x1 = 0.901 | 0.957
313.15 K, x2 = 0.2 | 0.786
313.15 K, x2 = 0.4 | 0.697
313.15 K, x2 = 0.6 | 0.614
313.15 K, x2 = 0.8 | 0.537

CCCC#N + CC(C)(C)O
viscosity [mPa·s], [1]
Conditions | 298.15 K | 303.15 K | 308.15 K | 313.15 K | 318.15 K
101 kPa, x2 = 0.0941 | 0.5487 | 0.5396 | 0.519 | – | –
101 kPa, x2 = 0.1845 | 0.5808 | 0.5686 | 0.5478 | – | –
101 kPa, x2 = 0.2837 | 0.6365 | 0.6123 | 0.5852 | – | –
101 kPa, x2 = 0.3758 | 0.7071 | 0.6764 | 0.6373 | – | –
101 kPa, x2 = 0.4766 | 0.8042 | 0.7523 | 0.6952 | – | –
101 kPa, x2 = 0.5782 | 0.9457 | 0.8545 | 0.7793 | – | –
101 kPa, x2 = 0.6804 | 1.211 | 1.071 | 0.9743 | – | –
101 kPa, x2 = 0.7836 | 1.61 | 1.417 | 1.268 | – | –
101 kPa, x2 = 0.8906 | 2.345 | 2.01 | 1.734 | – | –
101.33 kPa, x2 = 0.0953 | 0.575 | 0.54 | 0.51 | 0.481 | 0.456
101.33 kPa, x2 = 0.1938 | 0.613 | 0.573 | 0.537 | 0.505 | 0.476
101.33 kPa, x2 = 0.2941 | 0.669 | 0.622 | 0.579 | 0.54 | 0.506
101.33 kPa, x2 = 0.3922 | 0.749 | 0.689 | 0.636 | 0.589 | 0.546
101.33 kPa, x2 = 0.4949 | 0.867 | 0.788 | 0.719 | 0.66 | 0.607
101.33 kPa, x2 = 0.591 | 1.03 | 0.923 | 0.834 | 0.753 | 0.685
101.33 kPa, x2 = 0.695 | 1.297 | 1.138 | 1.006 | 0.895 | 0.802
101.33 kPa, x2 = 0.7957 | 1.727 | 1.476 | 1.272 | 1.107 | 0.974
101.33 kPa, x2 = 0.9002 | 2.573 | 2.103 | 1.746 | 1.464 | 1.245
